# Results: patent publication US11578087B2, “Oxaborole esters and uses thereof” (priority 2016, dated 2023)
# What was measured:
# [1] = test system: T. cruzi amastigote (Td Tomato-modified) in Vero cells; assay: In vitro IC50 measurement of T. cruzi amastigote killing using Td Tomato-modified T. cruzi; assay type: cell-based; details: Trypanosoma cruzi, 72 h, fluorescence, read-out: IC50: I Org. amastigote Growth T. cruzi 3 d
# How it was run: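 IC50/IC90 came from nonlinear regression of Day 3 minus Day 0 fluorescence (544/612 nm), correcting for input parasites. Final compound concentrations spanned 5 nM–5 uM on Td Tomato T. cruzi-infected Vero cells, 72 h at 37 °C.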
# [2] = test system: IL3000 T. congolense (drug sensitive) strain; assay: In vitro Alamar Blue 72 h drug sensitivity assay for T. congolense; assay type: cell-based, Trypanosoma congolense; details: Trypanosoma congolense, 72 h, bloodstream form, 69 h + 3 h Resazurin, 34° C., read-out: IC50: I Org. Growth T. congolense 3 d
# How it was run: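 IC50 values derive from 11-point curves averaged over at least three independent runs, with fluorescence read at 536 nm excitation and 588 nm emission. Resazurin was added for a final 3 h after 69 h compound exposure of bloodstream forms (HMI medium, 20% bovine serum, 34° C, 5% CO2).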
SMILES,IC50 [1],IC50 [2]
"Cc1c(C(=O)N[C@H](C(=O)OCc2cccc(CN(C)C)c2)C(C)C)ccc2c1B(O)OC2 [Example 6-081, 3-((Dimethylamino)methyl)benzyl (1-hydroxy-7-methyl-1,3-dihydrobenzo[c][1,2]oxaborole-6-carbonyl)-L-valinate]",21 to 999 nM,< 0.5 nM
"Cc1c(C(=O)N[C@H](C(=O)OCc2cccc(CN3CCN(C)CC3)c2)C(C)C)ccc2c1B(O)OC2 [Example 6-082, 3-((4-Methylpiperazin-1-yl)methyl)benzyl (1-hydroxy-7-methyl-1,3-dihydrobenzo[c][1,2]oxaborole-6-carbonyl)-L-valinate]",21 to 999 nM,0.51 to 9.99 nM
"Cc1c(C(=O)N[C@H](C(=O)OCc2cccc(CN3CCOCC3)c2)C(C)C)ccc2c1B(O)OC2 [Example 6-083, 3-(Morpholinomethyl)benzyl (1-hydroxy-7-methyl-1,3-dihydrobenzo[c][1,2]oxaborole-6-carbonyl)-L-valinate]",≤ 20 nM,< 0.5 nM
"Cc1c(C(=O)N[C@H](C(=O)OCc2ccc(S(=O)(=O)N3CCN(C)CC3)cc2)C(C)C)ccc2c1B(O)OC2 [Example 6-085, 4-((4-Methylpiperazin-1-yl)sulfonyl)benzyl (1-hydroxy-7-methyl-1,3-dihydrobenzo[c][1,2]oxaborole-6-carbonyl)-L-valinate]",21 to 999 nM,0.51 to 9.99 nM
"Cc1c(C(=O)N[C@H](C(=O)OCc2ccc(S(=O)(=O)N3CCOCC3)cc2)C(C)C)ccc2c1B(O)OC2 [Example 6-086, 4-(Morpholinosulfonyl)benzyl (1-hydroxy-7-methyl-1,3-dihydrobenzo[c][1,2]oxaborole-6-carbonyl)-L-valinate]",21 to 999 nM,< 0.5 nM
"Cc1c(C(=O)N[C@@H](C(=O)OCc2ccc(F)cc2)C(C)C)ccc2c1B(O)OC2 [Example 6-087, 4-Fluorobenzyl (1-hydroxy-7-methyl-1,3-dihydrobenzo[c][1,2]oxaborole-6-carbonyl)-D-valinate]",≥ 1000 nM,10 to 5000 nM
"Cc1c(C(=O)N[C@H](C(=O)OCc2ccc([S+](C)[O-])cc2)C(C)C)ccc2c1B(O)OC2 (stereo partly drawn) [Example 6-090, 4-(Methylsulfinyl)benzyl (1-hydroxy-7-methyl-1,3-dihydrobenzo[c][1,2]oxaborole-6-carbonyl)-L-valinate]",21 to 999 nM,0.51 to 9.99 nM
"Cc1c(C(=O)NC(C(=O)OCc2ccc(F)cc2)C(C)(C)F)ccc2c1B(O)OC2 (centres unmarked) [Example 6-091, 4-Fluorobenzyl 3-fluoro-2-(1-hydroxy-7-methyl-1,3-dihydrobenzo[c][1,2]oxaborole-6-carboxamido)-3-methylbutanoate]",≤ 20 nM,< 0.5 nM
"Cc1c(C(=O)N[C@H](C(=O)OCc2ccc(S(=O)(=O)C(C)C)cc2)C(C)C)ccc2c1B(O)OC2 [Example 6-092, 4-(Isopropylsulfonyl)benzyl (1-hydroxy-7-methyl-1,3-dihydrobenzo[c][1,2]oxaborole-6-carbonyl)-L-valinate]",21 to 999 nM,< 0.5 nM
"CCS(=O)(=O)c1ccc(COC(=O)[C@@H](NC(=O)c2ccc3c(c2C)B(O)OC3)C(C)C)cc1 [Example 6-093, 4-(Ethylsulfonyl)benzyl (1-hydroxy-7-methyl-1,3-dihydrobenzo[c][1,2]oxaborole-6-carbonyl)-L-valinate]",21 to 999 nM,0.51 to 9.99 nM
"CC[S+]([O-])c1ccc(COC(=O)[C@@H](NC(=O)c2ccc3c(c2C)B(O)OC3)C(C)C)cc1 (stereo partly drawn) [Example 6-094, 4-(Ethylsulfinyl)benzyl (1-hydroxy-7-methyl-1,3-dihydrobenzo[c][1,2]oxaborole-6-carbonyl)-L-valinate]",21 to 999 nM,0.51 to 9.99 nM
"Cc1c(C(=O)N[C@H](C(=O)OCCN2CCCC2)C(C)C)ccc2c1B(O)OC2 [Example 6-095, 2-(Pyrrolidin-1-yl)ethyl (1-hydroxy-7-methyl-1,3-dihydrobenzo[c][1,2]oxaborole-6-carbonyl)-L-valinate]",≥ 1000 nM,0.51 to 9.99 nM
"Cc1c(C(=O)N[C@H](C(=O)OCc2ccc(F)cc2)[C@H](C)OCc2ccc(F)cc2)ccc2c1B(O)OC2 [Example 6-097, 4-Fluorobenzyl O-(4-fluorobenzyl)-N-(1-hydroxy-7-methyl-1,3-dihydrobenzo[c][1,2]oxaborole-6-carbonyl)-L-allothreoninate]",21 to 999 nM,0.51 to 9.99 nM
"Cc1c(C(=O)N[C@H](C(=O)OCc2ccc(F)c(F)c2)C(C)(C)O)ccc2c1B(O)OC2 [Example 6-098, 3,4-Difluorobenzyl (S)-3-hydroxy-2-(1-hydroxy-7-methyl-1,3-dihydrobenzo[c][1,2]oxaborole-6-carboxamido)-3-methylbutanoate]",≤ 20 nM,< 0.5 nM
"Cc1c(C(=O)N[C@H](C(=O)OCc2cc(F)cc(F)c2)C(C)(C)O)ccc2c1B(O)OC2 [Example 6-099, 3,5-Difluorobenzyl (S)-3-hydroxy-2-(1-hydroxy-7-methyl-1,3-dihydrobenzo[c][1,2]oxaborole-6-carboxamido)-3-methylbutanoate]",21 to 999 nM,< 0.5 nM
"Cc1c(C(=O)N[C@H](C(=O)OCc2cc(F)c(F)c(F)c2)C(C)C)ccc2c1B(O)OC2 [Example 6-100, 3,4,5-Trifluorobenzyl (1-hydroxy-7-methyl-1,3-dihydrobenzo[c][1,2]oxaborole-6-carbonyl)-L-valinate]",≤ 20 nM,< 0.5 nM
"Cc1c(C(=O)N[C@H](C(=O)OCc2cc(F)c(F)c(F)c2)C(C)(C)O)ccc2c1B(O)OC2 [Example 6-101, 3,4,5-Trifluorobenzyl(S)-3-hydroxy-2-(1-hydroxy-7-methyl-1,3-dihydrobenzo[c][1,2]oxaborole-6-carboxamido)-3-methylbutanoate]",≤ 20 nM,< 0.5 nM
"Cc1c(C(=O)N[C@H](C(=O)OCc2ccc(C(=O)N3CCNCC3)cc2)C(C)C)ccc2c1B(O)OC2 [Example 6-102, 4-(Piperazine-1-carbonyl)benzyl (1-hydroxy-7-methyl-1,3-dihydrobenzo[c][1,2]oxaborole-6-carbonyl)-L-valinate]",≥ 1000 nM,10 to 5000 nM
"Cc1c(C(=O)N[C@H](C(=O)OCc2ccc(C(=O)NCCN(C)C)cc2)C(C)C)ccc2c1B(O)OC2 [Example 6-103, 4-((2-(Dimethylamino)ethyl)carbamoyl)benzyl (1-hydroxy-7-methyl-1,3-dihydrobenzo[c][1,2]oxaborole-6-carbonyl)-L-valinate]",≥ 1000 nM,10 to 5000 nM
"COCCOC(=O)[C@@H](NC(=O)c1ccc2c(c1C)B(O)OC2)C(C)C [Example 6-107, 2-Methoxyethyl (1-hydroxy-7-methyl-1,3-dihydrobenzo[c][1,2]oxaborole-6-carbonyl)-L-valinate]",≤ 20 nM,< 0.5 nM
"COCN(COC)S(=O)(=O)c1ccc(COC(=O)[C@@H](NC(=O)c2ccc3c(c2C)B(O)OC3)C(C)C)cc1 [Example 6-109, 4-(N,N-bis(methoxymethyl)sulfamoyl)benzyl (1-hydroxy-7-methyl-1,3-dihydrobenzo[c][1,2]oxaborole-6-carbonyl)-L-valinate]",21 to 999 nM,0.51 to 9.99 nM
"Cc1c(C(=O)N[C@H](C(=O)OCc2ccc(S(C)(=O)=O)c(CN(C)C)c2)C(C)C)ccc2c1B(O)OC2 [Example 6-110, 3-((Dimethylamino)methyl)-4-(methylsulfonyl)benzyl (1-hydroxy-7-methyl-1,3-dihydrobenzo[c][1,2]oxaborole-6-carbonyl)-L-valinate]",21 to 999 nM,0.51 to 9.99 nM
